These results are taken from patent US20120108632A1, “[…] INHIBITORS FOR OCULAR HYPERTENSION CONTROL AND THE TREATMENT OF GLAUCOMA” (ALCON RESEARCH, LTD., priority 2006, published 2012).

One series deals with GGTase (Homo sapiens, UniProt P53609). As to conditions: cited from earlier work.
Series [1] concerns CTGF gene expression in cultured human trabecular meshwork cells. The experiment in a line: Basal and TGFβ2-induced CTGF gene expression by QRT-PCR in TM cells. Type of series: cell-based. As to conditions: for measured CTGF levels (CTGF/18S cDNA) compared to TGFβ2-treated cells: TM cells treated with TGFβ2 and inhibitor, versus TGFβ2 alone, FIGS. 1 and 2. The source says: (§1) Total RNA was isolated from TM cells using Qiagen RNeasy 96 system according to the manufacturer's instructions (Qiagen).
Differential expression of CTGF and PAI-1 were verified by quantitative real-time RT-PCR (QRT-PCR) using an ABI Prism® 7700 Sequence Detection System (Applied Biosystems) essentially as previously described (Shepard et al., IOVS, 2001, Vol. 42:3173). Primers for CTGF amplification were designed using Primer Express software (Applied Biosystems) to anneal to adjacent exons of Genbank accession #NM_001901.1 ([…] (SEQ ID NO: 1), nts 1667-1689 and […] (SEQ ID NO: 2), nts 1723-1742, with probe sequence 6FAM-[…]-TAMRA (SEQ ID NO: 3)) and generate a 76-bp amplicon. Primers for PAI-1 amplification were purchased from ABI (Hs00167155 ml) and correspond to Genbank accession #NM_000602.1. Amplification of CTGF or PAI-1 was normalized to 18S ribosomal RNA expression using primers designed to the 18S rRNA gene (GenBank accession #X03205 […] (SEQ ID NO: 4), nts 1680-1700 and […] (SEQ ID NO: 5), nts 1730-1749, with probe sequence 6FAM-[…]-MGBNFQ (SEQ ID NO: 6)) which generates a 69-bp amplicon. CTGF or PAI-1 QRT-PCR was performed in multiplex with 18S primer/probe sets in a 50 ul final volume consisting of 40 nM 18S or 900 nM CTGF or PAI-1 primers; 100 nM 18S probe or 100 nM CTGF or 250 nM PAI-1 probe; 5 ul RNA; 1× Multiscribe and RNase Inhibitor Mix (ABI); and 1× TaqMan® Universal Mix (ABI). Thermal cycling conditions consisted of 48° C., 30 min, 95° C. 10 min followed by 40 cycles at 95° C., 15 sec, 60° C., 1 min. […] Quantification of relative RNA concentrations was done using the delta delta Ct method as described in PE Biosystems User Bulletin #2. Levels of amplified products were expressed as mean±SEM of quadruplicate QRT-PCR assays. […]
(§2) In this example, the effectiveness of GGTase and FTase inhibitors on CTGF gene expression in cultured human trabecular meshwork cells was studied. In this experiment, the CTGF/18S cDNA levels were measured and compared by QRT-PCR according to the protocol of Example 1.

Series [2] deals with PAI-1 gene expression in TM cell lines. The series can be described thus: TGFβ2-induced PAI-1 gene expression by QRT-PCR in TM cells. As to conditions: TM cell lines treated with TGFβ2 and inhibitor, versus TGFβ2 alone; FIG. 3. Type of series: cell-based, human.
Source text: as §1
Differential expression of CTGF and PAI-1 were verified by quantitative real-time RT-PCR (QRT-PCR) using an ABI Prism® 7700 Sequence Detection System (Applied Biosystems) essentially as previously described (Shepard et al., IOVS, 2001, Vol. 42:3173). Primers for CTGF amplification were designed using Primer Express software (Applied Biosystems) to anneal to adjacent exons of Genbank accession #NM_001901.1 ([…] (SEQ ID NO: 1), nts 1667-1689 and […] (SEQ ID NO: 2), nts 1723-1742, with probe sequence 6FAM-[…]-TAMRA (SEQ ID NO: 3)) and generate a 76-bp amplicon. Primers for PAI-1 amplification were purchased from ABI (Hs00167155 ml) and correspond to Genbank accession #NM_000602.1. […] Quantification of relative RNA concentrations was done using the delta delta Ct method as described in PE Biosystems User Bulletin #2. Levels of amplified products were expressed as mean±SEM of quadruplicate QRT-PCR assays. […]
as §2

Series [3] has as its system lactate dehydrogenase (LDH) release into culture media. The series can be described thus: CytoTox-ONE Homogenous Membrane Integrity Assay (LDH release). In kind it is cell-based. As to conditions: conclusion from LDH release; FIG. 4. On the technique in general: Release of lactate dehydrogenase indicates damage to the cell membrane.
The next series deals with Ftase (Homo sapiens, UniProt P49356). Particulars: cited from earlier work.

As for `CSCC[C@H](NC(=O)c1ccc(NC[C@@H](N)CS)cc1-c1ccccc1)C(=O)O` [FTI-276], the IC50 on GGTase was 50 nM.
With `COC(=O)[C@H](CCSC)NC(=O)c1ccc(NC[C@@H](N)CS)cc1-c1ccccc1` [FTI-277], the “measured CTGF levels (CTGF/18S cDNA) compared to TGFβ2-treated cells” value in series [1] is recorded as “produces a drop in measured CTGF levels”. Moreover, in series [2], the “measured PAI-1 compared to TGFβ2-treated cells” value is on record as “able to produce drops in measured PAI-1”. Further, in series [3], the cytotoxicity result is listed as “relatively low cytotoxicity”. In addition, the IC50 at Ftase is 100 nM.
Take `CSCC[C@H](NC(=O)c1ccc(NC(=O)[C@@H](N)CS)cc1)C(=O)O` [Ftase Inhibitor II]: the IC50 at Ftase was 50 nM.
As for `CSCC[C@H](NC(=O)[C@H](Cc1ccccc1)NC[C@@H](NC[C@@H](N)CS)C(C)C)C(=O)O` [Ftase Inhibitor I], the IC50 on GGTase is 790 nM; at Ftase it was 21 nM.
Consider `COC(=O)[C@H](CC(C)C)NC(=O)c1ccc(NC[C@@H](N)CS)cc1-c1ccccc1` [GGTI-286], for which the IC50 on GGTase is 2000 nM.
As for `CC(C)C[C@H](NC(=O)c1ccc(NC[C@@H](N)CS)cc1-c1cccc2ccccc12)C(=O)O` [GGTI-297], the IC50 on GGTase is 50 nM; at Ftase, 200 nM.
With `COC(=O)[C@H](CC(C)C)NC(=O)c1ccc(NC[C@@H](N)CS)cc1-c1cccc2ccccc12` [GGTI-298], at GGTase, the IC50 was 3000 nM.
`CC(C)C[C@H](NC(=O)c1ccc(NCc2cnc[nH]2)cc1-c1cccc2ccccc12)C(=O)O` [GGTI-2133]: the “measured CTGF levels (CTGF/18S cDNA) compared to vehicle alone” value in series [1] (TM cell cultures treated with TGFβ2 and inhibitor, versus vehicle alone, FIG. 1) was “lower than with vehicle alone”. In addition, the “measured CTGF levels (CTGF/18S cDNA) compared to TGFβ2-treated cells” value in series [1] is “dramatically reduced CTGF levels”. Further, the “measured PAI-1 compared to TGFβ2-treated cells” value in series [2] was “able to produce drops in measured PAI-1”. Moreover, the cytotoxicity entry in series [3] was “relatively low cytotoxicity”. In addition, the IC50 at GGTase is 38 nM; at Ftase, 5400 nM.
In the case of `COC(=O)[C@H](CC(C)C)NC(=O)c1ccc(NCc2cnc[nH]2)cc1-c1cccc2ccccc12` [GGTI-2147], the IC50 is 500 nM at GGTase and 30000 nM on Ftase.

In general, IC50 refers to the concentration needed to halve the response being measured.
